From patent US20240208934A1, “ULK1/2 INHIBITORS AND THEIR USE THEREOF” (LifeArc, priority 2021, published 2024)

Tested on: ULK
Assay: ULK radiometric assay (33P incorporation onto MBP substrate, glass fiber capture filter)
Conditions: ULK Biochemical activity; 20 uM ATP, 0.2 mg/mL MBP; averages of at least two independent experiments
Experimental: ULK activity was measured using a radiometric assay, to measure the incorporation of radiolabelled ^33P onto MBP substrate using a glass fiber capture filter method. Reaction conditions were 0.2 mg/mL MBP, 20 uM ATP (0.25 μCi/well), 50 mM Tris HCl, pH7.5, 10 mM MgCl2, 0.1% beta-mercaptoethanol, 0.1 mM EGTA, 0.01% BSA. Ten point Half log Compound dilution series were prepared in 100% DMSO and added to the reaction to give final assay concentration of 10% DMSO. Compounds were tested in duplicate and values normalized to 10% DMSO only controls. The data were fitted to a four parameter fit equation and the IC50 values shown are averages of at least two independent experiments.

Row | Compound | IC50
1 | COc1ccccc1Nc1ncc(C(F)(F)F)c(NCCCN2CCCCC2=O)n1 [Example 30, 1-[3-[[2-(2-Methoxyanilino)-5-(trifluoromethyl)pyrimidin-4-yl]amino]propyl]piperidin-2-one] | ≥ 1 µM
2 | Fc1cccc(Nc2ncc(C(F)(F)F)c(NCCCN3CCCC3)n2)c1 [Example 5, N2-(3-fluorophenyl)-N4-(3-(pyrrolidin-1-yl)propyl)-5-(trifluoromethyl)pyrimidine-2,4-diamine] | ≥ 1 µM
3 | COc1nn(C)cc1Nc1ncc(C(F)(F)F)c(NCCCN2CCCCC2=O)n1 [Example 27, 1-[3-[[2-[(3-Methoxy-1-methyl-pyrazol-4-yl)amino]-5-(trifluoromethyl)pyrimidin-4-yl]amino]propyl]piperidin-2-one] | < 0.2 µM
4 | CN1CCc2ccc(Nc3ncc(C4CC4)c(NCCCN4CCCCC4=O)n3)cc2C1 [Example 12, 1-(3-((5-Cyclopropyl-2-((2-methyl-1,2,3,4-tetrahydroisoquinolin-7-yl)amino)pyrimidin-4-yl)amino)propyl)piperidin-2-one] | < 0.2 µM
5 | O=C(CCNc1nc(Nc2ccc3c(c2)CCNC3)ncc1C(F)(F)F)N1CCOCC1 [Example 67, 1-Morpholino-3-[[2-(1,2,3,4-tetrahydroisoquinolin-6-ylamino)-5-(trifluoromethyl)pyrimidin-4-yl]amino]propan-1-one] | < 0.2 µM
6 | COc1cc2c(cc1Nc1ncc(C(F)(F)F)c(NCCCN3CCCCC3=O)n1)C(=O)NCC2 [Example 33, 6-Methoxy-7-[[4-[3-(2-oxo-1-piperidyl)propylamino]-5-(trifluoromethyl)pyrimidin-2-yl]amino]-3,4-dihydro-2H-isoquinolin-1-one] | ≥ 1 µM
7 | COc1nn(CC(C)(C)O)cc1Nc1ncc(C(F)(F)F)c(NCCCN2CCCCC2=O)n1 [Example 28] | < 0.2 µM
8 | CN1CCc2ccc(Nc3ncc(C4CC4)c(NCCCN4CCCC4=O)n3)cc2C1 [Example 10, 1-(3-((5-Cyclopropyl-2-((2-methyl-1,2,3,4-tetrahydroisoquinolin-7-yl)amino)pyrimidin-4-yl)amino)propyl)pyrrolidin-2-one] | < 0.2 µM
9 | COc1cc(C(=O)N2CCOCC2)ccc1Nc1ncc(C(F)(F)F)c(NCCCN2CCCCC2=O)n1 [Example 38, 1-[3-[[2-[2-Methoxy-4-(morpholine-4-carbonyl)anilino]-5-(trifluoromethyl)pyrimidin-4-yl]amino]propyl]piperidin-2-one] | ≥ 1 µM
10 | COc1ccc(CN2CCOCC2)cc1Nc1ncc(C(F)(F)F)c(NCCCN2CCCCC2=O)n1 [Example 61, 1-[3-[[2-[2-Methoxy-5-(morpholinomethyl)anilino]-5-(trifluoromethyl)pyrimidin-4-yl]amino]propyl]piperidin-2-one] | ≥ 1 µM
11 | FC(F)(F)c1cnc(Nc2ccc3c(c2)CCNC3)nc1NCCc1cnc[nH]1 [Example 65, N4-[2-(1H-imidazol-5-yl)ethyl]-N2-(1,2,3,4-tetrahydroisoquinolin-6-yl)-5-(trifluoromethyl)pyrimidine-2,4-diamine] | < 0.2 µM
12 | COc1cc2c(cc1Nc1ncc(C(F)(F)F)c(NCCC(=O)N3CCOCC3)n1)CNCC2 [Example 79, 3-[[2-[(6-Methoxy-1,2,3,4-tetrahydroisoquinolin-7-yl)amino]-5-(trifluoromethyl)pyrimidin-4-yl]amino]-1-morpholino-propan-1-one] | 0.2 to 1 µM
13 | O=C1CCCCN1CCCNc1nc(Nc2ccc(N3CCOCC3)cc2Cl)ncc1C(F)(F)F [Example 54, 1-[3-[[2-(2-Chloro-4-morpholino-anilino)-5-(trifluoromethyl)pyrimidin-4-yl]amino]propyl]piperidin-2-one] | < 0.2 µM
14 | CCOc1cc2c(cc1Nc1ncc(C(F)(F)F)c(NCCCN3CCCCC3=O)n1)CNCC2 [Example 21, 1-[3-[[2-[(6-Ethoxy-1,2,3,4-tetrahydroisoquinolin-7-yl)amino]-5-(trifluoromethyl)pyrimidin-4-yl]amino]propyl]piperidin-2-one] | < 0.2 µM
15 | CC(C)Oc1nn(C)cc1Nc1ncc(C(F)(F)F)c(NCCCN2CCCCC2=O)n1 [Example 49, 1-[3-[[2-[(3-Isopropoxy-1-methyl-pyrazol-4-yl)amino]-5-(trifluoromethyl)pyrimidin-4-yl]amino]propyl]piperidin-2-one] | ≥ 1 µM
16 | CN(C)CCCNc1nc(Nc2cccc(OC3CCN(C)CC3)c2)ncc1C1CC1 [Example 84, 5-Cyclopropyl-N4-(3-(dimethylamino)propyl)-N2-(3-(1-methylpiperidin-4-yloxy)phenyl)pyrimidine-2,4-diamine] | ≥ 1 µM
17 | FC(F)(F)c1cnc(Nc2ccc(N3CCOCC3)cc2)nc1NCC1CNCCO1 (stereo not shown) [Example 90, N2-(4-morpholinophenyl)-N4-(morpholin-2-ylmethyl)-5-(trifluoromethyl)pyrimidine-2,4-diamine] | 0.2 to 1 µM

Row | Compound | IC50
18 | CCN(CC)C(=O)C1CCCN(c2nc(Nc3cc4c(cc3OC)CCNC4)ncc2C(F)(F)F)C1 (stereo not shown) [Example 69, N,N-diethyl-1-[2-[(6-methoxy-1,2,3,4-tetrahydroisoquinolin-7-yl)amino]-5-(trifluoromethyl)pyrimidin-4-yl]piperidine-3-carboxamide] | ≥ 1 µM
19 | COc1cc2c(cc1Nc1ncc(C3CC3)c(NCCCN3CCCCC3=O)n1)CNCC2 [Example 75, 1-[3-[[5-Cyclopropyl-2-[(6-methoxy-1,2,3,4-tetrahydroisoquinolin-7-yl)amino]pyrimidin-4-yl]amino]propyl]piperidin-2-one] | 0.2 to 1 µM
20 | CNCc1ccc(OC)c(Nc2ncc(C(F)(F)F)c(NCCCN3CCCCC3=O)n2)c1 [Example 60, 1-[3-[[2-[2-Methoxy-5-(methylaminomethyl)anilino]-5-(trifluoromethyl)pyrimidin-4-yl]amino]propyl]piperidin-2-one] | < 0.2 µM
21 | O=C1CCCCN1CCCNc1nc(Nc2cccc3c2OCC3)ncc1C(F)(F)F [Example 31, 1-[3-[[2-(2,3-Dihydrobenzofuran-7-ylamino)-5-(trifluoromethyl)pyrimidin-4-yl]amino]propyl]piperidin-2-one] | ≥ 1 µM
22 | CN1CCC(O)(c2ccc(Nc3ncc(C4CC4)c(NCCCN4CCCCC4=O)n3)cc2)CC1 [Example 14, 1-(3-((5-Cyclopropyl-2-((4-(4-hydroxy-1-methylpiperidin-4-yl)phenyl)amino)pyrimidin-4-yl)amino)propyl)piperidin-2-one] | < 0.2 µM
23 | COc1cc2c(cc1Nc1ncc(C(F)(F)F)c(NCCCn3cccn3)n1)CNCC2 [Example 73, N2-(6-methoxy-1,2,3,4-tetrahydroisoquinolin-7-yl)-N4-(3-pyrazol-1-ylpropyl)-5-(trifluoromethyl)pyrimidine-2,4-diamine] | ≥ 1 µM
24 | CN(C)Cc1cccc(Nc2ncc(C3CC3)c(NCCCN3CCCCC3=O)n2)c1 [Example 13, 1-(3-(5-Cyclopropyl-2-(3-((dimethylamino)methyl)phenylamino)pyrimidin-4-ylamino)propyl) piperidin-2-one] | < 0.2 µM
25 | O=C1CCCCN1CCCNc1nc(Nc2ccc3c(c2)CNCC3)ncc1C(F)(F)F [Example 83, 1-[3-[[2-(1,2,3,4-Tetrahydroisoquinolin-7-ylamino)-5-(trifluoromethyl)pyrimidin-4-yl]amino]propyl]piperidin-2-one] | < 0.2 µM
26 | O=C1CCCCN1CCCNc1nc(Nc2cc(S(=O)(=O)N3CCNCC3)cc3c2OCC3)ncc1C(F)(F)F [Example 52, 1-[3-[[2-[(5-Piperazin-1-ylsulfonyl-2,3-dihydrobenzofuran-7-yl)amino]-5-(trifluoromethyl)pyrimidin-4-yl]amino]propyl]piperidin-2-one] | 0.2 to 1 µM
27 | O=C(NCCCNc1nc(Nc2ccc3c(c2)CCNC3)ncc1C(F)(F)F)C1CCC1 [Example 62, N-(3-((2-((1,2,3,4-tetrahydroisoquinolin-6-yl)amino)-5-(trifluoromethyl)pyrimidin-4-yl)amino)propyl)cyclobutanecarboxamide] | < 0.2 µM
28 | FC(F)(F)c1cnc(Nc2ccc(N3CCOCC3)cc2)nc1NCc1cn[nH]c1 [Example 92, N2-(4-morpholinophenyl)-N4-(1H-pyrazol-4-ylmethyl)-5-(trifluoromethyl)pyrimidine-2,4-diamine] | ≥ 1 µM
29 | COc1cc(COC(C)C)ccc1Nc1ncc(C(F)(F)F)c(NCCCN2CCCCC2=O)n1 [Example 35, 1-[3-[[2-[4-(Isopropoxymethyl)-2-methoxy-anilino]-5-(trifluoromethyl)pyrimidin-4-yl]amino]propyl]piperidin-2-one] | ≥ 1 µM
30 | CN1CCc2cc(Nc3ncc(C4CC4)c(NC4CC4)n3)ccc2C1 [Example 17, N4,5-dicyclopropyl-N2-(2-methyl-1,2,3,4-tetrahydroisoquinolin-6-yl)pyrimidine-2,4-diamine] | < 0.2 µM
31 | O=C1CCCCN1CCCNc1nc(Nc2cc(O)ccc2Cl)ncc1C(F)(F)F [Example 57, 1-[3-[[2-(2-Chloro-5-hydroxy-anilino)-5-(trifluoromethyl)pyrimidin-4-yl]amino]propyl]piperidin-2-one] | 0.2 to 1 µM
32 | CN1CCc2cc(Nc3ncc(C(F)(F)F)c(NCCCN4CCCC4=O)n3)ccc2C1 [Example 76, 1-[3-[[2-[(2-Methyl-3,4-dihydro-1H-isoquinolin-6-yl)amino]-5-(trifluoromethyl)pyrimidin-4-yl]amino]propyl]pyrrolidin-2-one] | < 0.2 µM
33 | COc1cc2c(cc1Nc1ncc(C(F)(F)F)c(NCC3CNCCO3)n1)CNCC2 (stereo not shown) [Example 78, N2-(6-methoxy-1,2,3,4-tetrahydroisoquinolin-7-yl)-N4-(morpholin-2-ylmethyl)-5-(trifluoromethyl)pyrimidine-2,4-diamine] | 0.2 to 1 µM
34 | O=C1CCCCN1CCCNc1nc(Nc2cc3c(cc2Cl)CCNC3)ncc1C(F)(F)F [Example 43, 1-[3-[[2-[(6-Chloro-1,2,3,4-tetrahydroisoquinolin-7-yl)amino]-5-(trifluoromethyl)pyrimidin-4-yl]amino]propyl]piperidin-2-one] | < 0.2 µM
